Test results taken from US6875761B2 (Eisai Co., Ltd., priority 1997, dated 2005).
Counter-ions that a name gives are not always drawn.

Columns and labels:
[1] = target: T1, serotonin 2 receptor (Rattus norvegicus, UniProt P14842); test: Binding test on [3H] ketanserin, cerebral cortex receptor fraction; set-up: species or system SD rats; settings: 0.3 nM [3H] ketanserin, 37° C. 15 min, read-out: 5HT2
T1 construct: To the receptor fraction of the cerebral cortex were added a test compound and 0.3 nM of [^3H] ketanserin; from tissue; host or cells: rat cerebral cortex membrane fraction
T1 sequence (P14842 whole entry): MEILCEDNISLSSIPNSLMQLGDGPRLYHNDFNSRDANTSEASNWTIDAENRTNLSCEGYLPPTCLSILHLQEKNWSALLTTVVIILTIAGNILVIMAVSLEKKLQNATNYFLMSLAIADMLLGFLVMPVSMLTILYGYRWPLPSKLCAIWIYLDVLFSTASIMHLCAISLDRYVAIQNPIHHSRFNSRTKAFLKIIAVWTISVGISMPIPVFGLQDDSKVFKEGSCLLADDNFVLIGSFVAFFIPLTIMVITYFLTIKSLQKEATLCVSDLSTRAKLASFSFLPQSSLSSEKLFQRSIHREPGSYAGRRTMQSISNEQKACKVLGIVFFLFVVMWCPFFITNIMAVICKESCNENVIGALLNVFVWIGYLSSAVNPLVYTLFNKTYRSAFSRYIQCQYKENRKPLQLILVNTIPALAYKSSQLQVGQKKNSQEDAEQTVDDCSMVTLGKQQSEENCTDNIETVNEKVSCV

[2] = target: T2, serotonin 1A receptor (Rattus norvegicus, UniProt P19327); test: Binding test on [3H] 8-hydroxy-dipropylaminotetralin, hippocampus receptor fraction; set-up: species or system SD rats; settings: rat hippocampus receptor fraction, 0.5 nM [3H] 8-OH-DPAT, room temperature 30 min; read-out: 5HT1
T2 construct: To the receptor fraction of the hippocampus were added a test compound and 0.5 nM of [^3H]; 8-hydroxy-dipropylaminotetralin; from tissue; host or cells: rat hippocampus membrane fraction
T2 sequence (P19327 1-422): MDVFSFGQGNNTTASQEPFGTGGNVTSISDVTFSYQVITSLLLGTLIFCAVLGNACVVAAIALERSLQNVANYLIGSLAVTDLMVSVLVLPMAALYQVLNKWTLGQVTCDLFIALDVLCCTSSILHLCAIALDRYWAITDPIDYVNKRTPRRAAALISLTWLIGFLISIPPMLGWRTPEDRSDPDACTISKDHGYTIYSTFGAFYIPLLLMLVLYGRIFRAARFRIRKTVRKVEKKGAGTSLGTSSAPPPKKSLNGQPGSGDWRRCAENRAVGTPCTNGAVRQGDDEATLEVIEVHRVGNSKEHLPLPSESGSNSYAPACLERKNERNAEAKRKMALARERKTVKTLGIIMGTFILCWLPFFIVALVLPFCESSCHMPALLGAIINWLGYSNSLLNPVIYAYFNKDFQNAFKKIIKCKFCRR

## CCN1CCN(c2nc(-c3ccc(C4CCCO4)cc3)cc3ccccc23)CC1 (stereo not shown) [Example 396, 1-(4-Ethylpiperazin-1-yl)-3-[4-(Tetrahydrofuran-2-yl)Phenyl]Isoquinoline Dihydrochloride]
[1]
  Ki: 2.6 nM
[2]
  Ki: 50.4 nM

## CCN1CCN(c2nc(-c3ccc([C@H]4CC[C@@H](O)CC4)cc3)cc3ccccc23)CC1 [Example 397, 1-(4-Ethylpiperazin-1-yl)-3-[4-(cis-4-Hydroxycyclohexyl)Phenyl]Isoquinoline Dihydrochloride]
[1]
  Ki: 0.9 nM
[2]
  Ki: 53.3 nM

## CCN1CCN(c2nc(-c3ccc([C@H]4CC[C@H](O)CC4)cc3)cc3ccccc23)CC1 [Example 398, 1-(4-Ethylpiperazin-1-yl)-3-[4-(trans-4-Hydroxycyclohexyl)Phenyl]Isoquinoline Dihydrochloride]
[1]
  Ki: 5.9 nM
[2]
  Ki: 8 nM

## CCN1CCN(c2nc(-c3ccc(CC4CCOCC4)cc3)cc3ccccc23)CC1 [Example 399, 1-(4-Ethylpiperazin-1-yl)-3-[4-(tetrahydropyran-4-yl)Methylphenyl]Isoquinoline Dihydrochloride]
[1]
  Ki: 17.2 nM
[2]
  Ki: 53 nM

## CCN1CCN(c2nc(-c3ccc(OC[C@@H](C)O)cc3)cc3ccccc23)CC1 [Example 403, 1-(4-ethylpiperazin-1-yl)-3-[4-(2-hydroxypropoxy)phenyl]isoquinoline Dihydrochloride]
[1]
  Ki: 0.78 nM
[2]
  Ki: 28.4 nM

## CCN1CCN(c2nc(-c3ccc(O[C@@H](C)CO)cc3)cc3ccccc23)CC1 [Example 404, 1-(4-ethylpiperazin-1-yl)-3-[4-(2-hydroxy-1-methylethoxy)phenyl]isoquinoline Dihydrochloride]
[1]
  Ki: 1.07 nM
[2]
  Ki: 18.8 nM

## CCN1CCN(c2nc(-c3ccnc(OC)c3)cc3ccccc23)CC1 [Example 405, 1-(4-ethylpiperazin-1-yl)-3-(2-methoxypyridin-4-yl)isoquinoline]
[1]
  Ki: 10.2 nM
[2]
  Ki: 22.6 nM

## CCN1CCN(c2nc(-c3ccnc(OCCOC)c3)cc3ccccc23)CC1 [Example 407, 1-(4-ethylpiperazin-1-yl)-3-[2-(2-methoxyethoxy)pyridin-4-yl]isoquinoline]
[1]
  Ki: 26.1 nM
[2]
  Ki: 17.8 nM

## CCN1CCN(c2nc(-c3ccc(C(N)=O)cc3)cc3ccccc23)CC1 [Example 408, 1-(4-ethylpiperazin-1-yl)-3-(4-carbamoylphenyl)isoquinoline]
[1]
  Ki: 36.3 nM
[2]
  Ki: 19.8 nM

## CCN1CCN(c2nc(-c3ccc(C(O)C4CCCCC4)cc3)cc3ccccc23)CC1 (stereo not shown) [Example 409, 1-(4-ethylpiperazin-1-yl)-3-[4-(cyclohexylhydroxymethyl)phenyl]isoquinoline]
[1]
  Ki: 9.7 nM
[2]
  Ki: 16.4 nM

## CCN1CCN(c2nc(-c3ccc(C4(O)CCOCC4)cc3)cc3ccccc23)CC1 [Example 410, 1-(4-ethylpiperazin-1-yl)-3-[4-(4-hydroxytetrahydropyran-4-yl)phenyl]isoquinoline]
[1]
  Ki: 2.1 nM
[2]
  Ki: 21.1 nM

## CCN1CCN(c2nc(-c3ccc(C(O)c4nccs4)cc3)cc3ccccc23)CC1 (stereo not shown) [Example 412, 1-(4-ethylpiperazin-1-yl)-3-[4-(1,3-thiazol-2-yl)hydroxymethylphenyl]isoquinoline]
[1]
  Ki: 41.4 nM
[2]
  Ki: 19.1 nM

## CCN1CCN(c2nc(-c3ccc4c(c3)CCC4=O)cc3ccccc23)CC1 [Example 414, 1-(4-ethylpiperazin-1-yl)-3-(1-indanon-5-yl)isoquinoline]
[1]
  Ki: 4.2 nM
[2]
  Ki: 17.3 nM

## CCN1CCN(c2nc(-c3ccc4c(c3)CCC4O)cc3ccccc23)CC1 (stereo not shown) [Example 415, 1-(4-ethylpiperazin-1-yl)-3-(1-hydroxyindan-5-yl)isoquinoline]
[1]
  Ki: 11.6 nM
[2]
  Ki: 3.6 nM

## CCN1CCN(c2nc(-c3ccc(OCCO)c(C#N)c3)cc3ccccc23)CC1 [Example 417, 1-(4-ethylpiperazin-1-yl)-3-[3-cyano-4-(2-hydroxyethoxy)phenyl]isoquinoline]
[1]
  Ki: 4.5 nM
[2]
  Ki: 13.4 nM

## CCN1CCN(c2nc(-c3cccc(CCCO)c3)cc3ccccc23)CC1 [Example 418, 1-(4-ethylpiperazin-1-yl)-3-[3-(3-hydroxypropyl)phenyl]isoquinoline]
[1]
  Ki: 17.4 nM
[2]
  Ki: 54.5 nM

## CCN1CCN(c2nc(Cc3ccccc3)cc3ccccc23)CC1 [Example 419, 1-(4-ethylpiperazin-1-yl)-3-benzylisoquinoline]
[1]
  Ki: 16.4 nM
[2]
  Ki: 94.8 nM

## CCN1CCN(c2nc(CC(O)c3ccccc3)cc3ccccc23)CC1 (stereo not shown) [Example 420, 1-(4-ethylpiperazin-1-yl)-3-(2-hydroxy-2-phenylethyl)isoquinoline]
[1]
  Ki: 22.4 nM
[2]
  Ki: 117 nM

## CCN1CCN(c2nc(NC(=O)c3ccccc3)cc3ccccc23)CC1 [Example 421, 3-benzamide-1-(4-ethylpiperazin-1-yl)isoquinoline]
[1]
  Ki: 129 nM
[2]
  Ki: 9.47 nM

## CCN1CCN(c2nc(NS(=O)(=O)c3ccccc3)cc3ccccc23)CC1 [Example 422, 3-benzenesulfoneamide-1-(4-ethylpiperazin-1-yl)isoquinoline]
[1]
  Ki: 175 nM
[2]
  Ki: 5.32 nM

## CCN1CCN(c2nc(NS(=O)(=O)c3ccc(OC)cc3)cc3ccccc23)CC1 [Example 423, 1-(4-ethylpiperazin-1-yl)-3-(4-methoxybenzenesulfonamide)isoquinoline]
[1]
  Ki: 332 nM
[2]
  Ki: 9.81 nM

## CCN1CCN(c2nc(COc3ccc(OC)cc3)cc3ccccc23)CC1 [Example 424, 1-(4-ethylpiperazin-1-yl)-3-(4-methoxyphenoxymethyl)isoquinoline Hydrochloride]
[1]
  Ki: 1.93 nM
[2]
  Ki: 61.6 nM

## CCN1CCN(c2nc(-c3ccc(OCCO)cc3OC)cc3ccccc23)CC1 [Example 425, 1-(4-ethylpiperazin-1-yl)-3-[4-(2-hydroxyethoxy)-2-methoxyphenyl]isoquinoline]
[1]
  Ki: 2.55 nM
[2]
  Ki: 321 nM

## CCN1CCN(c2nc(-c3ccc(OC4CCCCC4O)cc3)cc3ccccc23)CC1 (stereo not shown) [Example 426, 1-(4-ethylpiperazin-1-yl)-3-[4-(2-hydroxycyclohexyloxy)phenyl]isoquinoline Hydrochloride]
[1]
  Ki: 7.1 nM
[2]
  Ki: 133 nM

## CCN1CCN(c2nc(-c3ccc(OC)cc3)nc3ccccc23)CC1 [Example 427, 4-(4-ethylpiperazin-1-yl)-2-(4-methoxyphenyl)quinazoline Dihydrochloride]
[1]
  Ki: 300 nM
[2]
  Ki: 80.9 nM

## CCN1CCN(c2nc(/C=C/c3cccc(OCCO)c3)cc3ccsc23)CC1 [Example 430, 7-(4-ethylpiperazin-1-yl)-5-[3-(2-hydroxyethoxy)styryl]thieno [2,3-c]pyridine hydrochloride]
[1]
  Ki: 11.7 nM
[2]
  Ki: 2.48 nM

## CCN1CCN(c2nc(/C=C/c3ccc(OCCO)cc3)cc3ccsc23)CC1 [Example 431, 7-(4-ethylpiperazin-1-yl)-5-[4-(2-hydroxyethoxy)styryl]thieno[2,3-c]pyridine hydrochloride]
[1]
  Ki: 2.11 nM
[2]
  Ki: 1.98 nM

## CCN1CCN(c2nc(-c3ccc(CCCO)cc3)cc3ccsc23)CC1 [Example 432, 7-(4-ethylpiperazin-1-yl)-5-[4-(3-hydroxypropyl)phenyl]thieno[2,3-c]pyridine hydrochloride]
[1]
  Ki: 28.5 nM
[2]
  Ki: 1.98 nM

## CCN1CCN(c2nc(-c3ccc(CCCO)c(OC)c3)cc3ccsc23)CC1 [Example 433, 7-(4-ethylpiperazin-1-yl)-5-[4-(3-hydroxypropyl)-3-methoxyphenyl]thieno[2,3-c]-pyridine hydrochloride]
[1]
  Ki: 3.53 nM
[2]
  Ki: 20.6 nM
